In US9399626B2, “2-thiopyrimidinones” (Pfizer Inc., priority 2011, dated 2016):

Biological target: T1, MPO (purified from human polynuclear leukocytes) (Homo sapiens, UniProt P05164)
T1 construct: purified from human polynuclear leukocytes; purchased Calbiochem/EMD Biosciences; host or cells: human polynuclear leukocytes (natural source)
Assay: MPO Amplex Red Activity Assay
Assay type: biochemical
Conditions: Table 1A, 2 μM H2O2, pH 7.4
Summary of the method: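 Human leukocyte MPO […] oxidises 30 μM Amplex Red with 2 μM H2O2 in 50 mM NaPi pH 7.4, 150 mM NaCl, 1 mM DTPA, 2% DMSO. Resorufin fluorescence (ex 530/em 580 nm) read every 20 s, minus catalase background. kobs from the first 600 s, corrected for auto-inactivation, fit versus [I] for kinact/KI.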

T1 sequence (P05164 279-745 limits assumed): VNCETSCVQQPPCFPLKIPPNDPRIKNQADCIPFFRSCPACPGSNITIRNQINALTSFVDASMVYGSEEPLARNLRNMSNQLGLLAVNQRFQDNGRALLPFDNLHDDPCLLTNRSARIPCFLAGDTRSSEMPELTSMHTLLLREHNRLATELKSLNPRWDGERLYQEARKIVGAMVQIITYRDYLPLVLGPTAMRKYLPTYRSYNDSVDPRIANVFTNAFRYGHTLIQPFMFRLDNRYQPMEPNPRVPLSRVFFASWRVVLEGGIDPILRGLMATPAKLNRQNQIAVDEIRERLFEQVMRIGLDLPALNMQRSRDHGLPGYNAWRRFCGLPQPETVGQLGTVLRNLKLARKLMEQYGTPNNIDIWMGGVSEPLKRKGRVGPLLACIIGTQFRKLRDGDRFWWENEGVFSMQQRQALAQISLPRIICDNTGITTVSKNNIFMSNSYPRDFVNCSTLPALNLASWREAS
T1 sequence (P05164 165-273 limits assumed): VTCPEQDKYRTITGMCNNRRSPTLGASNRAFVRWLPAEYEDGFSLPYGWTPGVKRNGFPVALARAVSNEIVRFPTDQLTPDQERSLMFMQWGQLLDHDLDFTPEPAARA

Structure (SMILES)	MPO kinact/Ki
COc1ccc(-c2cc(=O)[nH]c(=S)n2CCC(=O)NC(=N)N)c(OC)c1 [Example 446, N-carbamimidoyl-3-{6-(2,4-dimethoxyphenyl)-4-oxo-2-thioxo-3,4-dihydropyrimidin-1(2H)-yl]propanamide]	14200 1/s per M
N=C(N)NCCn1c(-c2cc(Cl)ccc2OCCO)cc(=O)[nH]c1=S [Example 448, 1-(2-{6-[5-chloro-2-(2-hydroxyethoxy)phenyl]-4-oxo-2-thioxo-3,4-dihydropyrimidin-1(2H)-yl}ethyl)guanidine]	6490 1/s per M
COc1ccc(Cl)cc1-c1cc(=O)[nH]c(=S)n1CCCNC(=N)N1CCCC1 [Example 450, N-{3-[6-(5-chloro-2-methoxyphenyl)-4-oxo-2-thioxo-3,4-dihydropyrimidin-1(2H)-yl]propyl}pyrrolidine-1-carboximidamide]	7730 1/s per M
COc1ccc(-c2cc(=O)[nH]c(=S)n2CCNC(=O)NC(=N)N)c(OC)c1 [Example 452, 1-carbamimidoyl-3-{2-[6-(2,4-dimethoxyphenyl)-4-oxo-2-thioxo-3,4-dihydropyrimidin-1(2H)-yl]ethyl}urea]	11600 1/s per M
COc1ccc(-c2cc(=O)[nH]c(=S)n2CC(F)(F)CN=C(N)N)c(OC)c1 [Example 453, 2-{3-[6-(2,4-dimethoxyphenyl)-4-oxo-2-thioxo-3,4-dihydropyrimidin-1(2H)-yl]-2,2-difluoropropyl}guanidine]	27800 1/s per M

More lines, now with the values ahead:

MPO kinact/Ki	Structure (SMILES)
17200 1/s per M	COc1ccc(F)cc1-c1cc(=O)[nH]c(=S)n1CCCNC(=N)NC#N [Example 447, 1-cyano-3-{3-[6-(5-fluoro-2-methoxyphenyl)-4-oxo-2-thioxo-3,4-dihydropyrimidin-1(2H)-yl]propyl}guanidine]
12000 1/s per M	CCNC(=N)NCCCn1c(-c2cc(Cl)ccc2OC)cc(=O)[nH]c1=S [Example 449, 1-{3-[6-(5-chloro-2-methoxyphenyl)-4-oxo-2-thioxo-3,4-dihydropyrimidin-1(2H)-yl]propyl}-2-ethylguanidine]
16000 1/s per M	COc1ccc(Cl)cc1-c1cc(=O)[nH]c(=S)n1CCCNC(=N)NCC(C)(F)F [Example 451, 1-{3-[6-(5-chloro-2-methoxyphenyl)-4-oxo-2-thioxo-3,4-dihydropyrimidin-1(2H)-yl]propyl}-3-(2,2-difluoropropyl)guanidine]
